Data set [1] is classed as physicochemical. Conditions: DPG, 55° C. Here is the method: This solution was distributed into 6 vials (3 g each) and varying amounts of cyclohexene were added. The vials were then heated at 55° C. and analyzed periodically.
The format of data set [2] is physicochemical. Conditions: 2-propanol, 55° C. As to the method: Varying amounts of DHP were added and the vials put in a 55° C. oven. Active ingredient analysis was done periodically.
Data set [3] in a line: Stabilization of 5-Chloro and 2-Methyl mixture by norbornene in 2-propanol, 55° C oven. It counts as physicochemical. The text has this:
This solution was distributed into 6 vials and varying amounts of norbornene added.

A short description of data set [4]: Stabilization of 5-Chloro and 2-Methyl mixture by norbornene in dipropylene glycol containing 0.5% water, 55° C oven. It counts as physicochemical. Conditions: DPG (0.5% water). As to the method:
To 19.9 g of dipropylene glycol was added 0.1 g of water. […] This solution was distributed into 6 vials and varying amounts of norbornene were added.

Data set [5] is classed as physicochemical. Particulars: kerosene/diethylene glycol butyl ether. Here is the method: In a formulation comprised of 3 parts by weight of a mixture of 5-chloro-2-methyl-3-isothiazolone and 2-methyl-3-isothiazolone in a 3:1 ratio, 94 parts by weight of a mixture of kerosene […] and diethylene glycol butyl ether (20 parts by weight), 3 parts by weight norbornene stabilizer was added. The control had no norbornene.
Example 9 was repeated except using 1 part by weight norbornene. No loss of 5-chloro-2-methyl-3-isothiazolone was observed after eight weeks at 55° C.
Example 9 was repeated except using 1-tetradecene as stabilizer resulting in 86% 5-chloro-2-methyl-3-isothiazolone remaining after four weeks at 55° C. and complete loss by eight weeks.

For data set [6] the following is noted: 2-propanol + 2% water, 55° C. Here is the method: A solution of 5-chloro-2methyl-3-isothiazolone ("5-Chloro") and 2-methyl-3-isothiazolone ("2-Methyl") (3.11 g) was prepared in 2-propanol (12.1 g). This solution was distributed in 6 vials. Water (2%) and varying amounts of norbornene were then added. These were then put in a 55° C. oven and analyzed periodically.

The format of data set [7] is physicochemical. Particulars: 2-propanol/water systems.

The structures appear in SMILES notation. Like-named read-outs stand apart in the source and are kept apart here.

Take `Cn1sc(Cl)cc1=O` [5-chloro-2-methyl-3-isothiazolone]: the “2-Methyl (%) / 5-Chloro (%)” value was 11.4% in data set [1] (0% cyclohexene, 0 days); less than 0.1% in data set [1] (0% cyclohexene, 13 days); 10.1% in data set [1] (3.2% cyclohexene, 0 days); 0.19% in data set [1] (3.2% cyclohexene, 13 days); 10.9% in data set [1] (6.8% cyclohexene, 0 days); 0.10% in data set [1] (6.8% cyclohexene, 13 days). Besides, the “2-Methyl (%) / 5-Chloro (%)” value in data set [1] (9.1% cyclohexene, 0 days) is reported as 10.6%; in data set [1] (9.1% cyclohexene, 13 days) it was 8.6%; in data set [1] (9.1% cyclohexene, 30 days), 0.0%; in data set [1] (11.8% cyclohexene, 0 days), 10.5%; in data set [1] (11.8% cyclohexene, 13 days), 7.9%; in data set [1] (11.8% cyclohexene, 30 days), 0.0%. Besides, the “2-Methyl (%) / 5-Chloro (%)” value in data set [1] (16.7% cyclohexene, 0 days) was found to be 10.2%; in data set [1] (16.7% cyclohexene, 13 days) it was 9.0%; in data set [1] (16.7% cyclohexene, 30 days), 0.0%; in data set [2] (0% DHP, 0 days), 11.6%; in data set [2] (0% DHP, 12 days), 0.4%; in data set [2] (3.5% DHP, 0 days), 11.1%. For the same compound, the “2-Methyl (%) / 5-Chloro (%)” value in data set [2] (3.5% DHP, 12 days) is given as 0.1%; in data set [2] (6.3% DHP, 0 days) it was 10.8%; in data set [2] (6.3% DHP, 12 days), 0.1%; in data set [2] (11.8% DHP, 0 days), 10.2%; in data set [2] (11.8% DHP, 12 days), 0.6%; in data set [2] (16.7% DHP, 0 days), 9.7%. The “2-Methyl (%) / 5-Chloro (%)” value in data set [2] (16.7% DHP, 12 days) was determined as 0.5%; in data set [2] (21.1% DHP, 0 days), 9.2%; in data set [2] (21.1% DHP, 12 days), 0.4%; in data set [4] (0% norbornene, 0 days), 11.7%; in data set [4] (0% norbornene, 14 days) it was 0.0%; in data set [4] (0% norbornene, 30 days), 0%. The “2-Methyl (%) / 5-Chloro (%)” value in data set [4] (1.6% norbornene, 0 days) turned out to be 11.7%; in data set [4] (1.6% norbornene, 14 days) it was 0%; in data set [4] (3.2% norbornene, 0 days), 11.5%; in data set [4] (3.2% norbornene, 14 days), 10.4%; in data set [4] (3.2% norbornene, 30 days), 0.1%; in data set [4] (6.5% norbornene, 0 days) it was 11.2%. Further, the “2-Methyl (%) / 5-Chloro (%)” value worked out at 10.8% in data set [4] (6.5% norbornene, 14 days); 10.1% in data set [4] (6.5% norbornene, 30 days); 11.0% in data set [4] (9.0% norbornene, 0 days); 10.7% in data set [4] (9.0% norbornene, 14 days); 10.4% in data set [4] (9.0% norbornene, 30 days); 10.5% in data set [4] (14.3% norbornene, 0 days). Besides, the “2-Methyl (%) / 5-Chloro (%)” value was 10.2% in data set [4] (14.3% norbornene, 14 days); 9.7% in data set [4] (14.3% norbornene, 30 days); 12.2% in data set [6] (0% norbornene, 0 days); 0.23% in data set [6] (0% norbornene, 7 days); 16.7% in data set [6] (1.2% norbornene, 0 days); 0.09% in data set [6] (1.2% norbornene, 7 days). Besides, the “2-Methyl (%) / 5-Chloro (%)” value in data set [6] (2.3% norbornene, 0 days) was 16.5%; in data set [6] (2.3% norbornene, 7 days) it was 0.09%; in data set [6] (4.2% norbornene, 0 days) it was 16.2%; in data set [6] (4.2% norbornene, 7 days), 0.07%; in data set [6] (8.1% norbornene, 0 days) it was 15.7%; in data set [6] (8.1% norbornene, 7 days), less than 0.1%. Also, the “2-Methyl (%) / 5-Chloro (%)” value in data set [6] (14.1% norbornene, 0 days) is recorded as 14.7%; in data set [6] (14.1% norbornene, 7 days) it was 13.5%; in data set [6] (14.1% norbornene, 21 days), less than 0.1%. For the same compound, the “stabilization with norbornene (in words)” value in data set [3] is “completely stabilized”. For the same compound, the “loss of 5-chloro-2-methyl-3-isothiazolone” value was “complete loss” in data set [5] (1-tetradecene as stabilizer, by eight weeks at 55° C) and “No loss” in data set [5] (1 part by weight norbornene, eight weeks at 55° C). Moreover, the 5-chloro-2-methyl-3-isothiazolone left entry in data set [5] (control, no norbornene, eight weeks at 55° C) is given as “no 5-chloro-2-methyl-3-isothiazolone left”. The 5-chloro-2-methyl-3-isothiazolone remaining in data set [5] (672 h) is 86%; in data set [5] (1344 h), 100%.
`C1=CC2C3C=CC(C3)C2C1` (centres unmarked) [dicylopentadiene]: in data set [7], the “stabilizing properties (in words)” value is reported as “failed to show any stabilizing properties”.
Take `C1=Cc2ccccc2C1` [indene]: in data set [7], the “stabilizing properties (in words)” value was “failed to show any stabilizing properties”.

For the origin of these results see US5160526A, “Alkene stabilizers for 3-isothiazolone compounds” (priority 1991, dated 1992).
